Laboratory results: the NIST ThermoML archive (doi:10.1021/je5005752)

Test: xn = mol fraction of the nth substance listed
Conditions: 101 kPa, Liquid; for viscosity: Falling or rolling sphere viscometry; for mass density: Vibrating tube method

CCCC(=O)OCC [ethyl butanoate] + CCCO
Conditions | mass density [kg/m3] | viscosity [mPa·s]
288.15 K, x1 = 0.1001 | 819.96 | 1.784
288.15 K, x1 = 0.2 | 830.48 | 1.392
288.15 K, x1 = 0.2999 | 839.77 | 1.151
288.15 K, x1 = 0.3994 | 848.08 | 1.008
288.15 K, x1 = 0.4999 | 855.6 | 0.9046
288.15 K, x1 = 0.6002 | 862.45 | 0.8354
288.15 K, x1 = 0.6998 | 868.56 | 0.7874
288.15 K, x1 = 0.8001 | 874.16 | 0.7517
288.15 K, x1 = 0.9001 | 879.26 | 0.7286
288.15 K, x1 = 1 | 884.16 | 0.7224
293.15 K, x1 = 0.1001 | 815.72 | 1.599
293.15 K, x1 = 0.2 | 826.03 | 1.262
293.15 K, x1 = 0.2999 | 835.14 | 1.054
293.15 K, x1 = 0.3994 | 843.3 | 0.9293
293.15 K, x1 = 0.4999 | 850.69 | 0.8397
293.15 K, x1 = 0.6002 | 857.44 | 0.779
293.15 K, x1 = 0.6998 | 863.46 | 0.737
293.15 K, x1 = 0.8001 | 868.99 | 0.706
293.15 K, x1 = 0.9001 | 874.03 | 0.6861
293.15 K, x1 = 1 | 878.9 | 0.6808
298.15 K, x1 = 0.1001 | 811.45 | 1.438
298.15 K, x1 = 0.2 | 821.55 | 1.147
298.15 K, x1 = 0.2999 | 830.49 | 0.9686
298.15 K, x1 = 0.3994 | 838.5 | 0.8586
298.15 K, x1 = 0.4999 | 845.76 | 0.7808
298.15 K, x1 = 0.6002 | 852.4 | 0.7275
298.15 K, x1 = 0.6998 | 858.34 | 0.6906
298.15 K, x1 = 0.8001 | 863.8 | 0.6636
298.15 K, x1 = 0.9001 | 868.79 | 0.6465
298.15 K, x1 = 1 | 873.62 | 0.643
303.15 K, x1 = 0.1001 | 807.15 | 1.3
303.15 K, x1 = 0.2 | 817.04 | 1.048
303.15 K, x1 = 0.2999 | 825.81 | 0.8932
303.15 K, x1 = 0.3994 | 833.68 | 0.7965
303.15 K, x1 = 0.4999 | 840.81 | 0.727
303.15 K, x1 = 0.6002 | 847.35 | 0.68
303.15 K, x1 = 0.6998 | 853.2 | 0.6481
303.15 K, x1 = 0.8001 | 858.59 | 0.624
303.15 K, x1 = 0.9001 | 863.53 | 0.6098
303.15 K, x1 = 1 | 868.33 | 0.6072
308.15 K, x1 = 0.1001 | 802.83 | 1.179
308.15 K, x1 = 0.2 | 812.51 | 0.959
308.15 K, x1 = 0.2999 | 821.1 | 0.8239
308.15 K, x1 = 0.3994 | 828.82 | 0.7391
308.15 K, x1 = 0.4999 | 835.83 | 0.6786
308.15 K, x1 = 0.6002 | 842.27 | 0.638
308.15 K, x1 = 0.6998 | 848.03 | 0.6089
308.15 K, x1 = 0.8001 | 853.36 | 0.5882
308.15 K, x1 = 0.9001 | 858.26 | 0.5756
308.15 K, x1 = 1 | 863.02 | 0.5736
313.15 K, x1 = 0.1001 | 798.47 | 1.073
313.15 K, x1 = 0.2 | 807.94 | 0.8796
313.15 K, x1 = 0.2999 | 816.35 | 0.7599
313.15 K, x1 = 0.3994 | 823.93 | 0.6873
313.15 K, x1 = 0.4999 | 830.81 | 0.6338
313.15 K, x1 = 0.6002 | 837.16 | 0.598
313.15 K, x1 = 0.6998 | 842.84 | 0.5722
313.15 K, x1 = 0.8001 | 848.11 | 0.5543
313.15 K, x1 = 0.9001 | 852.96 | 0.544
313.15 K, x1 = 1 | 857.7 | 0.5424
318.15 K, x1 = 0.1001 | 794.06 | 0.9782
318.15 K, x1 = 0.2 | 803.33 | 0.8084
318.15 K, x1 = 0.2999 | 811.58 | 0.7044
318.15 K, x1 = 0.3994 | 819 | 0.6398
318.15 K, x1 = 0.4999 | 825.77 | 0.5926
318.15 K, x1 = 0.6002 | 832 | 0.5612
318.15 K, x1 = 0.6998 | 837.62 | 0.5398
318.15 K, x1 = 0.8001 | 842.82 | 0.5227
318.15 K, x1 = 0.9001 | 847.64 | 0.5138
318.15 K, x1 = 1 | 852.36 | 0.5132
323.15 K, x1 = 0.1001 | 789.62 | 0.9018
323.15 K, x1 = 0.2 | 798.67 | 0.7475
323.15 K, x1 = 0.2999 | 806.74 | 0.6572
323.15 K, x1 = 0.3994 | 814.03 | 0.601
323.15 K, x1 = 0.4999 | 820.68 | 0.5568
323.15 K, x1 = 0.6002 | 826.83 | 0.5301
323.15 K, x1 = 0.6998 | 832.37 | 0.5106
323.15 K, x1 = 0.8001 | 837.52 | 0.4955
323.15 K, x1 = 0.9001 | 842.3 | 0.488
323.15 K, x1 = 1 | 847 | 0.487
